Results from patent US8877158B2, “Targeting agent to newly formed blood vessels” (FUJIFILM Corporation, priority 2009, dated 2014).

Experiments:
[1] = in vivo, 24 h; cited from earlier work
αVβ3 integrin = target: T1, αVβ3 integrin (Homo sapiens, UniProt P05106+P06756); test: Inhibition of αVβ3-integrin-mediated HUVEC adhesion by anti-αV antibody; format: cell-based; settings: coating 0.2 μg/well; antibody-treated vs untreated HUVECs
T1 construct: many αVβ3 integrin molecules are permanently expressed on the surfaces of HUVECs; host or cells: HUVEC (normal human umbilical vein endothelial cells)
Method: In order to identify binding between R-Gel and HUVECs as αVβ3-integrin-mediated binding, experimentation was conducted to determine whether or not R-Gel-to-cell adhesion would be inhibited by blocking αVβ3 integrin with an anti-αV antibody in the R-Gel-to-cell adhesiveness tests conducted in (7) above.
Specifically, cell adhesion experiments were conducted as described in (7) above. Experiments were conducted using the R-Gel-coated plate and the fibronectin-coated plate at a coating concentration of 0.2 μg/well. The prepared HUVECs were incubated with anti-human αV monoclonal antibodies (MAB1980: CHEMICON) at a sufficient concentration at 37° C. for 30 minutes, and they are described as “antibody-treated HUVECs”. On the other hand, the prepared HUVECs were incubated with the addition of the same amount of PBS at 37° C. for 30 minutes, and they are described as ““untreated HUVECs”. Cells were inoculated on plates with addition of a solution (100 μL/well) prepared in a manner such that it contained antibody-treated HUVECs or untreated HUVECs at a concentration of 1,000,000 cells/mL. The time for cell adhesion was determined to be 1 hour at 37° C. as in the case of (7) above. Quantitative determination of the number of cells was carried out by DNA assay as in the case of (7) above.

HUVECs = test: HUVEC cell adhesiveness test on protein-coated plates (DNA assay, 1-cell area); format: cell-based, human
Text: HUVECs (normal human umbilical vein endothelial cells; Takara Bio Inc.) were used as vascular endothelial cells. It is known that many αVβ3 integrin molecules are permanently expressed on the surfaces of HUVECs. By testing cell adhesiveness of R-Gel to HUVECs, binding of R-Gel to vascular endothelial cells activated by newly formed blood vessels can be elucidated. Also, binding of R-Gel to αVβ3 integrin that has been reported to be highly expressed at newly formed blood vessel sites can be elucidated.
For culture of HUVECs, endothelial cell basic medium-2 (containing no serum) (EBM™-2) and endothelial cell medium kit-2 (2% FBS) (EGM™-2 BulletKit™) were used (Takara Bio Inc.). Upon subculture and removal of cells, an EDTA-containing 0.25% trypsin solution was used. HUVECs that had been allowed to proliferate to a sufficient amount in a T-75 flask were removed from the bottom surface of the flask, followed by centrifugation for removal of the supernatant. Then, the resultant was washed with the above endothelial cell basic medium-2 containing the endothelial cell medium kit 2. Centrifugation was performed again to remove the supernatant. […] The number of living cells was counted using cell counter. […]
DNA assay was performed for quantitative determination of the number of cells on the obtained plates. […]

[2] = test system: tumor site and tumoral neovascular site; test: Imaging of tumor site and tumoral neovascular site of cancer-bearing animal (Colon-26 homograft); format: in vivo, BALB/c mouse; settings: cyclo-RGDfK administered 30 minutes before Cy7-R-Gel
Method: As a tumor-bearing animal model, a cancer-bearing animal was produced. As an animal, BALB/c mouse (female, 6-week-old; Japan SLC, Inc.) was used. Tumor was produced using a cancer cell homograft model. As cancer cells, Colon-26 (which were cells derived from BALB/c mouse colon cancer) was used, and these cells were cultured in large scale in an RPMI1640 medium containing 10% fetal bovine serum. For the culture, a T-225 flask was used. Using EDTA-containing 0.25% trypsin, the growing cancer cells were removed from the bottom of the flask, and a culture supernatant was then removed by centrifugation. Thereafter, the solution was replaced with PBS (phosphate buffer), and the cell concentration was then counted using a cell counter. […]
200 μL of the Cy7-R-Gel or Cy7-animal gelatin produced in (6) above was administered to the cancer-bearing animal produced in (9) above via caudal vein administration, and a fluorescence imaging experiment was then carried out from the outside of the body of the animal.
For detection of a fluorescence signal, measurement, and imaging, Lumino image analyzer LAS5000 (a trial product of Fujifilm Corporation) was used. A visible light image and a fluorescence image were simultaneously taken, and the two images were then overlapped to identify a site from which fluorescence was emitted. […]

neovascular site = test: Inhibition of accumulation of R-Gel in neovascular site by previous administration of cyclo-RGDfK; format: in vivo, mouse; settings: for fluorescence intensity in the neovascular site: average±S.D.
Method: In order to evaluate whether accumulation of R-Gel in neovascular site is targeting caused by the same mechanism as that of circular RGD peptide cyclo-RGDfK, whether accumulation of R-Gel would be inhibited by previously administering a large amount of cyclo-RGDfK was examined. Unlabeled cyclo-RGDfK was dissolved in a concentration of 1 mg/ml in ultrapure water, and thereafter, 100 μL of the obtained solution was administered to a mouse via caudal vein administration. Thirty minutes later, 100 μL of Cy7-R-Gel was administered thereto via caudal vein administration. As a control, instead of cyclo-RGDfK, 100 μL of PBS (phosphate buffer) was administered to a mouse via caudal vein administration, and thirty minutes later, 100 μL of Cy7-R-Gel was administered thereto via caudal vein administration. After completion of the administration, fluorescence intensity in the neovascular site was measured over time. When the fluorescence intensity was measured 1 hour after the administration, the fluorescence intensity in the PBS administration group was 98063583±1200251 (average±S.D.), whereas the fluorescence intensity in the cyclo-RGDfK administration group was 81431011±1373625 (average±S.D.). […] Likewise, in the measurement 3 hours after the administration, the fluorescence intensity in the PBS administration group was 88124139±3438695 (average±S.D.), whereas the fluorescence intensity in the cyclo-RGDfK administration group was 60269975±1267782 (average±S.D.). In the measurement 24 hours after the administration, the fluorescence intensity in the PBS administration group was 22196881±2549892 (average±S.D.), whereas the fluorescence intensity in the cyclo-RGDfK administration group was 12763810±1927458 (average±S.D.).

T1 sequence (P06756 31-889 limits assumed): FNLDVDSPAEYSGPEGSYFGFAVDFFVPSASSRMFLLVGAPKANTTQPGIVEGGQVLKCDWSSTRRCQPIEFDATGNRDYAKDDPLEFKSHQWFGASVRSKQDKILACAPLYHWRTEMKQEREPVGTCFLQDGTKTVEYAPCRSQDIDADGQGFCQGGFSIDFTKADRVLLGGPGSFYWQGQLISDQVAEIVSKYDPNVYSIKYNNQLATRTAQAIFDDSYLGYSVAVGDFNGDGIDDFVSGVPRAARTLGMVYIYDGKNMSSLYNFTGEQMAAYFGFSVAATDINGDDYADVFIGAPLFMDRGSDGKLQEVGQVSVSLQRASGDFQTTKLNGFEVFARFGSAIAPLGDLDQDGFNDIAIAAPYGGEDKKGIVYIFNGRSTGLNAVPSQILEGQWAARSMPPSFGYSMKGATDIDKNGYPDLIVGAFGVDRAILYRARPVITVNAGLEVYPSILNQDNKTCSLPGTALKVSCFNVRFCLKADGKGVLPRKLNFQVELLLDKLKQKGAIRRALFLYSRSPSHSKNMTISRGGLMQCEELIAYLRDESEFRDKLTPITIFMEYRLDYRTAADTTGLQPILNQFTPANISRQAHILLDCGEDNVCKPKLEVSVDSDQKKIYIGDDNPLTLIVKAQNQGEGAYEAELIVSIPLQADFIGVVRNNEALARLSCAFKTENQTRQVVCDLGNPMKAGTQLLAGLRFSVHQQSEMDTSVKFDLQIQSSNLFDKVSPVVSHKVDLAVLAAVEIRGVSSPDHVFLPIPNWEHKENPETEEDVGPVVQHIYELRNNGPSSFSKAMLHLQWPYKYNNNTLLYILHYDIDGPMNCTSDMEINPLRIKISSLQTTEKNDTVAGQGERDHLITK
T1 sequence (P06756 891-1048 partner limits assumed): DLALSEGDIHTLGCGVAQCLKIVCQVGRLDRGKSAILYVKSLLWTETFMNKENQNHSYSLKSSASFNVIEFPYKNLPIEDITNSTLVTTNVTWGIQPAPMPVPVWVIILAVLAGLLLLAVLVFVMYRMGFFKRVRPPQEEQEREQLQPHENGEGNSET
T1 sequence (P05106 27-788): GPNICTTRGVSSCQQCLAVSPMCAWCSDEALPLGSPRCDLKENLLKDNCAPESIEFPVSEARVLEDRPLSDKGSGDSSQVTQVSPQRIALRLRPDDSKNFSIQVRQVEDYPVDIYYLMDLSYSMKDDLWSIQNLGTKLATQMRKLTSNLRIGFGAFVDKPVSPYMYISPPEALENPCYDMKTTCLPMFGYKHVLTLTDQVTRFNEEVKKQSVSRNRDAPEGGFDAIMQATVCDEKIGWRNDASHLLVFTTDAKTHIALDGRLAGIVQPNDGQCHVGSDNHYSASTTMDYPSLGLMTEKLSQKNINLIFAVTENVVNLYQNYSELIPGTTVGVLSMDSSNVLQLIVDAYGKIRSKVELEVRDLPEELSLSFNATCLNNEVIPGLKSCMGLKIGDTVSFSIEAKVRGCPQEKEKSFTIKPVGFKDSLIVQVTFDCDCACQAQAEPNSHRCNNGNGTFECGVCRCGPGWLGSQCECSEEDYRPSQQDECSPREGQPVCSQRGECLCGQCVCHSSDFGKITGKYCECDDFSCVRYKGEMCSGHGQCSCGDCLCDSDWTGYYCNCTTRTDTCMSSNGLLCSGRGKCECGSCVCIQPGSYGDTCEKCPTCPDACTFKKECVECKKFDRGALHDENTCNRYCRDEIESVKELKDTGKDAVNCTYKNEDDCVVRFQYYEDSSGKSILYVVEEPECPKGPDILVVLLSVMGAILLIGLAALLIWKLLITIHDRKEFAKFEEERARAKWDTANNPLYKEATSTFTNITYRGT

## cyclic-RGDyK
[1]
  amount of the circular RGD peptide remaining in the body: ≤ 15%

## fibronectin
αVβ3 integrin
  adhesion to HUVECs treated with anti-human αV monoclonal antibody (MAB1980): significantly inhibited

## R-Gel: recombinant gelatin CBE3, SEQ ID NO: 1, GAP[(GXY)63]3G, 571 amino acids, 12 RGD sequences
HUVECs; coated plates 0.02-2.0 μg/well, 1 hour at 37° C.
  adhesion to HUVECs (number of cells by DNA assay): superior to fibronectin, Fibrogen, PSK, and G1917P
HUVECs; from photos, ImageJ
  1-cell area of HUVEC adhering to coated plate: significantly superior to Fibrogen, PSK, and G1917P
αVβ3 integrin
  adhesion to HUVECs treated with anti-human αV monoclonal antibody (MAB1980): significantly inhibited

## cyclo-RGDfK
[2]
  accumulation of R-Gel in the tumoral neovascular site and the tumor site after previous cyclo-RGDfK: decreased
Neovascular site; Cy7-R-Gel 30 min after cyclo-RGDfK (1 mg/ml, 100 μL) pre-administration, 1 hour after the administration
  fluorescence intensity in the neovascular site: 81431011±1373625
Neovascular site; Cy7-R-Gel 30 min after cyclo-RGDfK pre-administration, 3 hours after the administration
  fluorescence intensity in the neovascular site: 60269975±1267782
Neovascular site; Cy7-R-Gel 30 min after cyclo-RGDfK pre-administration, 24 hours after the administration
  fluorescence intensity in the neovascular site: 12763810±1927458
Neovascular site; large amount of cyclo-RGDfK administered 30 min before Cy7-R-Gel
  effect of previous administration of cyclo-RGDfK on accumulation of R-Gel in blood vessels: inhibits the effect of R-Gel to accumulate in blood vessels
